How the values were obtained:
[1] = Cytotoxicity assay (PrestoBlue) HepG2; assay type: cell-based; conditions: human, HepG2 cells (hepatoma cell line), 24 h incubation
E. coli (CCUG #67180) = assay: Antibacterial activity against isolates (Omnilog, Biolog redox dye); assay type: cell-based, Escherichia coli; conditions: for EC90 / EC50: Escherichia coli, ca-MH broth, 24 h, 37 °C; for EC90: CCUG67180, 24 h; for EC50: CCUG67180; for Selectivity index E. coli (CCUG #67180): SI = ((EC50 MCF-7 + EC50 HepG2)/2)/EC50 bacterial strain
Procedure: (§1) The antibacterial activities of eight compounds (1, 3, 4, 6, 8, 10, 16, and 17) were tested against 10 different isolates of Gram-negative bacteria from human and other sources, two E. coli (CCUG #67180 and CCUG #17620/ATCC #25922, control strain), two K. pneumoniae (CCUG #58547 and CCUG #225T), two P. aeruginosa (CCUG #17619 and CCUG #59347), two A. baumannii (CCUG #57035 and CCUG #57250), E. cloacae (CCUG #6323T), and E. hormaechei (CCUG #58962) in a 96-well plate format. The compounds to test were 3-fold diluted in six steps in cation-adjusted Mueller-Hinton (ca-MH) broth to final concentrations spanning from 30 to 0.12 µM, i.e., a 1667–416,667 times dilution from the 50 mM stocks. Bacterial mass from the ten isolates grown overnight on horse blood or Mueller–Hinton agar plates was suspended in ca-MH and adjusted to a final inoculum cell density of ~5 × 10^5 CFU/mL. For all assays, Biolog redox dye A diluted 100× from the stock solution was used for measurements of all ten isolates (up to a total volume of 120 µL per well). All plates included one well per isolate with only inoculum and dye but no test compound (i.e., positive control) and one well per isolate with inoculum, dye and DMSO diluted 1667×, corresponding to the DMSO concentration in the wells with the highest concentration of test compound. All measurements were performed using the Omnilog microplate reader (Biolog, Hayward, CA, USA) where the 96-well plates were read at 15 min intervals for a total of 24 h at 37 °C.

[2] = system: E. coli (CCUG #17620/ ATCC #25922); assay: as above; assay type: cell-based, Escherichia coli; conditions: for EC50 / EC90: Escherichia coli, ca-MH broth, 24 h, 37 °C; for Selectivity index E. coli (CCUG #17620/ ATCC #25922): SI = ((EC50 MCF-7 + EC50 HepG2)/2)/EC50 bacterial strain
Procedure: as §1

[3] = system: K. pneumoniae (CCUG #58547); assay: as above; assay type: cell-based, Klebsiella pneumoniae; conditions: for EC50 / EC90: Klebsiella pneumoniae, CCUG58547, ca-MH broth, 24 h, 37 °C; for Selectivity index K. pneumoniae (CCUG #58547): SI = ((EC50 MCF-7 + EC50 HepG2)/2)/EC50 bacterial strain
Procedure: as §1, with “The compounds to test were 3-fold diluted in six steps in cation-adjusted Mueller-Hinton (ca-MH) broth to final concentrations spanning from 30 to 0.12 µM, i.e., a 1667–416,667 times dilution from the 50 mM stocks.” left out

[4] = system: E. coli MG1655 (CGSC #6300); assay: Antibacterial resazurin assay, laboratory strain; conditions: for EC50 / EC90: Escherichia coli, MG1655, 18 h; for EC50: read-out: Eco EC50; for EC90: read-out: Eco EC90; for Selectivity index E. coli: mean of MCF-7 and HepG2 EC50 over bacterial EC50, laboratory strain
E. cloacae (CCUG #6323T) = assay: Antibacterial activity against isolates (Omnilog, Biolog redox dye); assay type: cell-based, Enterobacter cloacae; conditions: for EC50 / EC90: Enterobacter cloacae, ca-MH broth, 24 h, 37 °C; for Selectivity index E. cloacae (CCUG #6323T): SI = ((EC50 MCF-7 + EC50 HepG2)/2)/EC50 bacterial strain
Procedure: as §1

[5] = system: P. aeruginosa (CCUG #59347); assay: as above; assay type: cell-based, Pseudomonas aeruginosa; conditions: for EC50 / EC90: Pseudomonas aeruginosa, CCUG59347, ca-MH broth, 24 h, 37 °C; for Selectivity index P. aeruginosa (CCUG #59347): SI = ((EC50 MCF-7 + EC50 HepG2)/2)/EC50 bacterial strain
Procedure: as §1, with “The compounds to test were 3-fold diluted in six steps in cation-adjusted Mueller-Hinton (ca-MH) broth to final concentrations spanning from 30 to 0.12 µM, i.e., a 1667–416,667 times dilution from the 50 mM stocks.” left out

[6] = system: P. aeruginosa (CCUG #17619); assay: as above; assay type: cell-based, Pseudomonas aeruginosa; conditions: for EC50 / EC90: Pseudomonas aeruginosa, CCUG17619, ca-MH broth, 24 h, 37 °C; for Selectivity index P. aeruginosa (CCUG #17619): SI = ((EC50 MCF-7 + EC50 HepG2)/2)/EC50 bacterial strain
Procedure: as §1

[7] = system: A. baumannii (CCUG #57250); assay: as above; assay type: cell-based, Acinetobacter baumannii; conditions: for EC90 / EC50: Acinetobacter baumannii, ca-MH broth, 24 h, 37 °C; for EC90: CCUG57250, 24 h; for EC50: CCUG57250; for Selectivity index A. baumannii (CCUG #57250): SI = ((EC50 MCF-7 + EC50 HepG2)/2)/EC50 bacterial strain
Procedure: as §1

[8] = Cytotoxicity assay (PrestoBlue) MCF-7; assay type: cell-based; conditions: human, MCF-7 cells (breast cancer cell line), 24 h incubation

Row | Compound | EC50 at 24 h [1] | EC90 (E. coli (CCUG #67180)) | EC50 (E. coli (CCUG #67180)) | Selectivity index E. coli (CCUG #67180) (E. coli (CCUG #67180)) | EC50 [2] | EC90 [2] | Selectivity index E. coli (CCUG #17620/ ATCC #25922) [2] | EC50 [3] | EC90 [3] | Selectivity index K. pneumoniae (CCUG #58547) [3] | EC50 [4] | EC90 [4] | Selectivity index E. coli [4] | EC50 (E. cloacae (CCUG #6323T)) | EC90 (E. cloacae (CCUG #6323T)) | Selectivity index E. cloacae (CCUG #6323T) (E. cloacae (CCUG #6323T)) | EC50 [5] | EC90 [5] | Selectivity index P. aeruginosa (CCUG #59347) [5] | EC50 [6] | also measured
1 | N=C(N)Nc1ccc(-c2ccc(-c3ccc(NC(=N)N)cc3Cl)o2)c(Cl)c1 [Compound 1, 2,5-Bis(2-chloro-4-guanidinophenyl)furan] | 43.4 µM | 3.8 µM | 3.2 µM | 12.2 | 3.9 µM | 6.3 µM | 9.9 | 5.2 µM | 8 µM | 7.5 | 64.8 µM | 148 µM | 0.6 | 1 µM | 1.2 µM | 37.2 | 5.3 µM | 7.4 µM | 7.3 | 4.8 µM | EC90 [6]: 6.7 µM; Selectivity index P. aeruginosa (CCUG #17619) [6]: 8.1; EC90 [7]: 6.6 µM; EC50 [7]: 4.4 µM; Selectivity index A. baumannii (CCUG #57250) [7]: 8.7; EC50 at 24 h [8]: 34.4 µM
2 | N=C(N)Nc1ccc(-c2ccc(C(=O)N3CCc4cc(NC(=N)N)ccc43)o2)c(Cl)c1 [Compound 16, (5-(2-chloro-4-guanidinophenyl)furan-2-yl)(5-guanidinoindolin-1-yl)methanone] | 241 µM | 27.1 µM | 23 µM | 9.1 | 13.6 µM | 19.7 µM | 15.4 | 12.9 µM | 15.3 µM | 16.2 | 13.1 µM | 19 µM | 16.0 | 3.5 µM | 7.9 µM | 60.1 | 18.1 µM | 24 µM | 11.5 | 17.1 µM | EC90 [6]: 22.9 µM; Selectivity index P. aeruginosa (CCUG #17619) [6]: 12.2; EC90 [7]: 12.5 µM; EC50 [7]: 12.5 µM; Selectivity index A. baumannii (CCUG #57250) [7]: 16.7; EC50 at 24 h [8]: 177 µM

— publication PMC9404985, “Development of Dicationic Bisguanidine-Arylfuran Derivatives as Potent Agents against Gram-Negative Bacteria” (Antibiotics, 2022)
